# Values of other authors as cited in patent publication US11324772B2, “Periodontal gel composition and method of use” (PRUDENTIX LTD., priority 2017, dated 2022).
smiles,measurement,setting,value
"CCCCCCCCN=c1ccn(CCCCCCCCCCn2ccc(=NCCCCCCCC)cc2)cc1 [octenidine, 1,1′,4,4′-tetrahydro-N,N′-dioctyl-1,1′-decametylenedi-(4-pyridylideneamine)]",pH range in which octenidine is stable and maintains its antimicrobial activity,pH,1.6-12.2
same,temperature up to which it can be sterilized by steam in aqueous solutions,"steam, aqueous solutions",up to 130 °C
